Data set [1] is described as follows: in vitro. Particulars: human, liver microsomes.
Description: Intrinsic clearance in human liver microsomes
The species entered for data set [2] is Mus musculus. The data set can be described thus: animal or person. The settings on record: C57BL, Plasma, po, read-out: INH.
Description: Inhibition of 11-beta-HSD1 in C57BL mouse assessed as reduction of plasma cortisol level at 1 mg/kg, po administered 30 mins before cortisone challenge measured after 60 mins by ELISA relative to control
The species entered for data set [3] is Mus musculus. As to the kind of experiment: animal or person. The settings on record: C57BL, Plasma, po, read-out: INH. This is another data set of the same source.
Description: Inhibition of 11-beta-HSD1 in C57BL mouse assessed as reduction of plasma cortisol level at 3 mg/kg, po administered 30 mins before cortisone challenge measured after 60 mins by ELISA relative to control
Data set [4] is filed under the species Mus musculus. The data set can be described thus: animal or person. Particulars: C57BL, Plasma, po, read-out: INH. The source holds these as a separate data set.
Description: Inhibition of 11-beta-HSD1 in C57BL mouse assessed as reduction of plasma cortisol level at 10 mg/kg, po administered 30 mins before cortisone challenge measured after 60 mins by ELISA relative to control
The species entered for data set [5] is Mus musculus. The data set can be described thus: animal or person. Particulars: C57BL, Plasma, po, read-out: INH. This is another data set of the same source.
Description: Inhibition of 11-beta-HSD1 in C57BL mouse assessed as reduction of plasma cortisol level at 30 mg/kg, po administered 30 mins before cortisone challenge measured after 60 mins by ELISA relative to control
The species entered for data set [6] is Mus musculus. The data set can be described thus: animal or person. The settings on record: C57BL, Plasma, po, read-out: INH. This is another data set of the same source.
Description: Inhibition of 11-beta-HSD1 in C57BL mouse assessed as reduction of plasma cortisol level at 100 mg/kg, po administered 30 mins before cortisone challenge measured after 60 mins by ELISA relative to control

For 12 compounds, CLint scaled and inhibition in vivo results are on record in ChEMBL document CHEMBL1157918, “The development and SAR of pyrrolidine carboxamide 11beta-HSD1 inhibitors” (Bioorg Med Chem Lett, 2010).

The CLint scaled is a measure of how fast metabolising enzymes remove a compound, apart from limits set by blood flow. The low end stands for greater metabolic stability, the high end for faster metabolism. For `CN1CCC[C@@H]1C(=O)NC1C2CC3CC(C2)CC1C3` (some centres not stated), in data set [1], the CLint scaled is 22.2 mL/min/kg.

In data set [1], `CCCN1CCC[C@@H]1C(=O)NC1C2CC3CC(C2)CC1C3` (some centres not stated) came in with an intrinsic clearance (CLint scaled) of 93.3 mL/min/kg.

`CCN1CCC[C@@H]1C(=O)NC1C2CC3CC(C2)CC1C3` (some centres not stated) returned a CLint scaled in data set [1] of 43.9 mL/min/kg. The inhibition in vivo at 1 mg/kg in data set [2] was 52%. In addition, in data set [3], the inhibition in vivo at 3 mg/kg came out at 46%. Further, in data set [4], the inhibition in vivo at 10 mg/kg came out at 23%. Moreover, the inhibition in vivo at 30 mg/kg in data set [5] was found to be 20%. In addition, the inhibition in vivo at 100 mg/kg in data set [6] worked out at 18%.

Regarding `O=C(NC1C2CC3CC(C2)CC1C3)[C@H]1CCCN1c1ccccn1` (some centres not stated), the intrinsic clearance (CLint scaled) in data set [1] came out at 79.2 mL/min/kg.

In turn, `O=C(NC1C2CC3CC(C2)CC1C3)[C@H]1CCCN1CC1CCOCC1` (some centres not stated) gave a CLint scaled in data set [1] of 20.3 mL/min/kg.

In data set [1], `O=C(NC1C2CC3CC(C2)CC1C3)[C@H]1CCCN1CC1(O)CCCC1` (some centres not stated) displayed a CLint scaled of 86.2 mL/min/kg.

In turn, `O=C(NC1C2CC3CC(C2)CC1C3)[C@H]1CCCN1CC1(O)CCCCC1` (some centres not stated) registered an intrinsic clearance (CLint scaled) in data set [1] of 64.6 mL/min/kg.

In data set [1], `O=C(NC1C2CC3CC(C2)CC1C3)[C@H]1CCCN1CC1CCCC1` (some centres not stated) registered a CLint scaled of 75.3 mL/min/kg.

As to `O=C(NC1C2CC3CC(C2)CC1C3)[C@H]1CCCN1CC1CCCCC1` (some centres not stated), the CLint scaled in data set [1] stood at 62.8 mL/min/kg.

In data set [1], `CC(C)CN1CCC[C@@H]1C(=O)NC1C2CC3CC(C2)CC1C3` (some centres not stated) yielded a CLint scaled of 79.3 mL/min/kg.

As to `O=C(NC1C2CC3CC(C2)CC1C3)[C@H]1CCCN1CC1CCC1` (some centres not stated), in data set [1], the CLint scaled was determined as 85.8 mL/min/kg.

In data set [1], `N#Cc1ccc(CN2CCC[C@@H]2C(=O)NC2C3CC4CC(C3)CC2C4)cc1` (some centres not stated) came in with an intrinsic clearance (CLint scaled) of 73.2 mL/min/kg.
